Laboratory results published in patent US11013702B2, “Midodrine hydrochloride oral solution and uses thereof” (Vertice Pharma, LLC, priority 2017, dated 2021).

Assay: Solubility of midodrine hydrochloride in various solvents and pH values
Format: physicochemical

Measured: solubility

COc1ccc(OC)c(C(O)CNC(=O)CN)c1.Cl (stereo not drawn) [Midodrine Hydrochloride, 2-amino-N-[2-(2,5-dimethoxyphenyl) -2-hydroxyethyl]acetamide hydrochloride]
> 10000 µg/mL: 0.01N hydrochloric acid, simulated gastric fluid | 0.1N hydrochloric acid, simulated gastric fluid | Simulated Gastric Fluid (SGF) pH 1.25 | aqueous buffer, Potassium Phosphate Buffer, pH 6.0 | potassium phosphate buffer, pH 2.5, aqueous buffer | potassium phosphate buffer, pH 3.5, aqueous buffer | potassium phosphate buffer, pH 4.5, aqueous buffer | potassium phosphate buffer, pH 5.5, aqueous buffer | potassium phosphate buffer, pH 6.8, aqueous buffer | potassium phosphate buffer, pH 7.2, aqueous buffer | potassium phosphate buffer, pH 7.5, aqueous buffer | water
